Values quoted from earlier work in PMC6105163, “Abaloparatide Exerts Bone Anabolic Effects with Less Stimulation of Bone Resorption-Related Factors: A Comparison with Teriparatide” (Calcified Tissue International, 2018).
Ends that are not written are not given here.

Key:
bone mass = conditions: cited from earlier work; for effect of continuous infusion: in vivo; for bone mass, intermittent administration: ref [2], [3]
Text: Parathyroid hormone (PTH) and PTH-related protein (PTHrP) have a common G protein-coupled receptor, PTH1R, which plays a pivotal role in bone turnover and calcium homeostasis.

bone turnover = conditions: preclinical study, ref [25], cited from earlier work
Text: (§1) There is another possibility that the two peptides could show the different activity on protein kinase C (PKC). PKC is the downstream signal of PTH1R and is involved in the stimulation of bone resorption-related factors and bone catabolism. In fact, ostabolin, an amidated form of human PTH(1–31), differs from PTH(1–34) in PKC activation.

cAMP and PKC = conditions: ref [24]; cited from earlier work
Text: as §1

| Substance | effect of continuous infusion (bone mass) | bone mass, intermittent administration (bone mass) | bone resorption (bone turnover; vs PTH(1–34)) | bone formation (bone turnover) | cAMP accumulation and PKC activation (cAMP and PKC) |
| --- | --- | --- | --- | --- | --- |
| PTH: Parathyroid hormone | caused bone loss and hypercalcemia | increased bone mass | – | – | – |
| PTHrP: PTH-related protein | caused bone loss and hypercalcemia | increased bone mass | – | – | – |
| ostabolin: an amidated form of human PTH(1–31) (SVSEIQLMHNLGKHLNSMERVEWLRKKLQDV-NH2; UniProt P01270 32-62, looked up, fragment) | – | – | less effect on bone resorption than PTH(1–34) | stimulated bone formation similar to PTH(1–34) | cAMP accumulation without activating PKC |
